Test results: US20120028888A1, “APJ RECEPTOR COMPOUNDS” (priority 2008, published 2012)
Non-standard residues stand in square brackets, D forms with d. Residues, ends and D or L forms follow the SMILES beside them. ξ: configuration not given here. *: point of attachment. Palmitoyl = CCCCCCCCCCCCCCCC(=O)*; ξR = N=C(N)NCCCC(N)C(=O)O

The compounds below were run against T1, Gi-coupled receptor APJ (HEK cells stably expressing the APJ receptor) (Homo sapiens, UniProt P35414) (assay: HTRF cAMP assay: inhibition of NKH477 stimulated increase in cAMP). Settings: read-out: EC50 value (nM), SEM.
T1 construct: expressed in transfected cells; host or cells: HEK cells stably expressing APJ
T1 sequence (P35414 1-380): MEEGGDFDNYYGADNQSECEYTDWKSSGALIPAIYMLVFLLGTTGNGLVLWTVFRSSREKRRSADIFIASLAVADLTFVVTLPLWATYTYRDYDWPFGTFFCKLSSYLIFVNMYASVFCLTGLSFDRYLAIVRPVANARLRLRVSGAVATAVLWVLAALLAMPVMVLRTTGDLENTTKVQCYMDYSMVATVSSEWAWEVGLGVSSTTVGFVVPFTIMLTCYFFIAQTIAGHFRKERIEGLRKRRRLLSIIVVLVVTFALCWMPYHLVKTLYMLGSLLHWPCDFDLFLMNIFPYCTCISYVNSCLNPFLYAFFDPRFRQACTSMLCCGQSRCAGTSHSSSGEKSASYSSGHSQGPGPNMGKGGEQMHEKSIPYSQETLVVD
Format: cell-based
Source text: HTRF (homogeneous time resolved fluorescence) is a technology developed by Cisbio Bioassays based on TR-FRET (time-resolved fluorescence resonance energy transfer). Cisbio Bioassays has developed a wide selection of HTRF-based assays compatible with whole cells, thereby enabling functional assays to run under more physiological conditions. The IP-One assays are competitive immunoassays using cryptate-labeled anti-IPI monoclonal antibody and d2-labeled IP1. IP1 is a relatively stable downstream metabolite of IP3, and accumulates in cells following Gq receptor activation.
cAMP kits based on a competitive immunoassay using cryptate-labeled anti-cAMP antibody and d2-labeled cAMP were used to assay the effects of APJ compounds of the present invention. This assay measures the increase in intracellular cAMP upon Gs-coupled receptor activation as well as decrease in forskolin (or a more soluble version of forskolin—NKH477) stimulated increase in cAMP upon Gi-coupled receptor activation.

Row | Compound | EC50
1 | CCCCCCCCCCCCCCCC(=O)N[C@H](C(=O)N[C@H](C(=O)N[C@@H](Cc1ccccc1)C(=O)N[C@@H](CCCNC(=N)N)C(=O)N[C@@H](CO)C(=O)N[C@@H](CO)C(=O)N[C@@H](CCCNC(=N)N)C(=O)N[C@@H](CCC(=O)O)C(=O)N[C@@H](CCCCN)C(=O)N[C@@H](CCCNC(=N)N)C(=O)N[C@@H](CCCNC(=N)N)C(=O)N[C@@H](CO)C(=O)N[C@@H](C)C(=O)N[C@@H](CC(=O)O)C(=O)N[C@H](C(=O)N[C@@H](C)C(=O)N[C@H](C(N)=O)[C@@H](C)CC)[C@@H](C)CC)C(C)C)[C@@H](C)O [Compound 39] (Palmitoyl-TVFRSSREKRRSADIAI-NH2) | 1 to 500 nM
2 | CCCCCCCCCCCCCCCC(=O)N[C@H](C(=O)N[C@H](C(=O)N[C@@H](Cc1ccccc1)C(=O)N[C@@H](CCCNC(=N)N)C(=O)N[C@@H](C)C(=O)N[C@@H](CO)C(=O)N[C@@H](CCCNC(=N)N)C(=O)N[C@@H](CCC(=O)O)C(=O)N[C@@H](CCCCN)C(=O)N[C@@H](CCCNC(=N)N)C(=O)N[C@@H](CCCNC(=N)N)C(=O)N[C@@H](CO)C(=O)N[C@@H](C)C(=O)N[C@@H](CC(=O)O)C(=O)N[C@H](C(=O)N[C@@H](Cc1ccccc1)C(=O)N[C@H](C(N)=O)[C@@H](C)CC)[C@@H](C)CC)C(C)C)[C@@H](C)O [Compound 27] (Palmitoyl-TVFRASREKRRSADIFI-NH2) | 501 to 1000 nM
3 | CCCCCCCCCCCCCCCC(=O)N[C@H](C(=O)N[C@H](C(=O)N[C@@H](Cc1ccccc1)C(=O)N[C@@H](CCCNC(=N)N)C(=O)N[C@@H](CO)C(=O)N[C@@H](CO)C(=O)N[C@@H](CCCNC(=N)N)C(=O)N[C@@H](C)C(=O)N[C@@H](CCCCN)C(=O)N[C@@H](CCCNC(=N)N)C(=O)N[C@@H](CCCNC(=N)N)C(=O)N[C@@H](CO)C(=O)N[C@@H](C)C(=O)N[C@@H](CC(=O)O)C(=O)N[C@H](C(=O)N[C@@H](Cc1ccccc1)C(=O)N[C@H](C(N)=O)[C@@H](C)CC)[C@@H](C)CC)C(C)C)[C@@H](C)O [Compound 41] (Palmitoyl-TVFRSSRAKRRSADIFI-NH2) | 1 to 500 nM
4 | CCCCCCCCCCCCCCCC(=O)N[C@H](C(=O)N[C@@H](CCCNC(=N)N)C(=O)N1CCC[C@H]1C(=O)N[C@H](C(=O)N[C@@H](C)C(=O)N[C@@H](CC(N)=O)C(=O)N[C@@H](C)C(=O)N[C@@H](CCCNC(=N)N)C(=O)N[C@@H](CC(C)C)C(=O)NC(CCCNC(=N)N)C(=O)N[C@@H](CC(C)C)C(N)=O)C(C)C)C(C)C (stereo partly drawn) [Compound 84] (Palmitoyl-VRPVANARL[ξR]L-NH2) | > 10000 nM
5 | CCCCCCCCCCCCCCCC(=O)N[C@H](C(=O)N[C@@H](C)C(=O)N[C@@H](Cc1ccccc1)C(=O)N[C@@H](CCCNC(=N)N)C(=O)N[C@@H](CO)C(=O)N[C@@H](CO)C(=O)N[C@@H](CCCNC(=N)N)C(=O)N[C@@H](CCC(=O)O)C(=O)N[C@@H](CCCCN)C(=O)N[C@@H](CCCNC(=N)N)C(=O)N[C@@H](CCCNC(=N)N)C(=O)N[C@@H](CO)C(=O)N[C@@H](C)C(=O)N[C@@H](CC(=O)O)C(=O)N[C@H](C(=O)N[C@@H](Cc1ccccc1)C(=O)N[C@H](C(N)=O)[C@@H](C)CC)[C@@H](C)CC)[C@@H](C)O [Compound 22] (Palmitoyl-TAFRSSREKRRSADIFI-NH2) | 1 to 500 nM
6 | CCCCCCCCCCCCCCCC(=O)N[C@H](C(=O)N[C@@H](CCCNC(=N)N)C(=O)N1CCC[C@H]1C(=O)N[C@H](C(=O)N[C@@H](C)C(=O)N[C@@H](CC(N)=O)C(=O)N[C@@H](C)C(=O)N[C@@H](CCCNC(=N)N)C(=O)N[C@@H](CC(C)C)C(=O)NC(CCCNC(=N)N)C(N)=O)C(C)C)C(C)C (stereo partly shown) [Compound 80] (Palmitoyl-VRPVANARL[ξR]-NH2) | > 10000 nM
7 | CCCCCCCCCCCCCCCC(=O)N[C@H](C(=O)N[C@@H](CCCNC(=N)N)C(=O)N1CCC[C@H]1C(=O)N[C@H](C(=O)N[C@@H](C)C(=O)N[C@@H](CC(N)=O)C(=O)N[C@@H](C)C(=O)N[C@@H](CCCNC(=N)N)C(=O)N[C@@H](CC(C)C)C(=O)N[C@@H](CCCNC(=N)N)C(=O)N[C@@H](CC(C)C)C(=O)N[C@@H](CCCNC(=N)N)C(N)=O)C(C)C)C(C)C [Compound 83] (Palmitoyl-VRPVANARLRLR-NH2) | > 10000 nM
8 | CCCCCCCCCCCCCCCC(=O)N[C@@H](CCCNC(=N)N)C(=O)N1CCC[C@H]1C(=O)N[C@H](C(=O)N[C@@H](C)C(=O)N[C@@H](CC(N)=O)C(=O)N[C@@H](C)C(=O)N[C@@H](CCCNC(=N)N)C(=O)N[C@@H](CC(C)C)C(=O)N[C@@H](CCCNC(=N)N)C(=O)N[C@@H](CC(C)C)C(=O)N[C@@H](CCCNC(=N)N)C(=O)N[C@H](C(=O)N[C@@H](CO)C(=O)NCC(N)=O)C(C)C)C(C)C [Compound 75] (Palmitoyl-RPVANARLRLRVSG-NH2) | > 10000 nM
9 | CCCCCCCCCCCCCCCC(=O)N[C@H](C(=O)N[C@@H](CO)C(=O)N[C@@H](CO)C(=O)N[C@@H](CCCNC(=N)N)C(=O)N[C@@H](CCC(=O)O)C(=O)N[C@@H](CCCCN)C(=O)N[C@@H](CCCNC(=N)N)C(=O)N[C@@H](CCCNC(=N)N)C(=O)N[C@@H](CO)C(=O)N[C@@H](C)C(=O)N[C@@H](CC(=O)O)C(=O)N[C@H](C(=O)N[C@@H](Cc1ccccc1)C(=O)N[C@H](C(N)=O)[C@@H](C)CC)[C@@H](C)CC)C(C)C [Compound 25] (Palmitoyl-VSSREKRRSADIFI-NH2) | 1000 to 5000 nM
10 | CCCCCCCCCCCCCCCC(=O)N[C@H](C(=O)N[C@@H](CCCNC(=N)N)C(=O)N1CCC[C@H]1C(=O)N[C@H](C(=O)N[C@@H](C)C(=O)N[C@@H](CC(N)=O)C(=O)N[C@@H](C)C(=O)N[C@@H](CCCNC(=N)N)C(=O)N[C@@H](CC(C)C)C(=O)N[C@@H](CCCNC(=N)N)C(=O)N[C@@H](CC(C)C)C(=O)N[C@@H](CCCNC(=N)N)C(=O)N[C@H](C(N)=O)C(C)C)C(C)C)C(C)C [Compound 85] (Palmitoyl-VRPVANARLRLRV-NH2) | > 10000 nM
11 | CCCCCCCCCCCCCCCC(=O)N[C@@H](C)C(=O)N[C@H](C(=O)N[C@H](C(=O)N[C@@H](CCCNC(=N)N)C(=O)N1CCC[C@H]1C(=O)N[C@H](C(=O)N[C@@H](C)C(=O)N[C@@H](CC(N)=O)C(=O)N[C@@H](C)C(=O)N[C@@H](CCCNC(=N)N)C(=O)N[C@@H](CC(C)C)C(=O)N[C@@H](CCCNC(=N)N)C(=O)N[C@@H](CC(C)C)C(=O)N[C@@H](CCCNC(=N)N)C(=O)N[C@H](C(=O)N[C@@H](CO)C(=O)NCC(N)=O)C(C)C)C(C)C)C(C)C)[C@@H](C)CC [Compound 78] (Palmitoyl-AIVRPVANARLRLRVSG-NH2) | > 10000 nM
12 | CCCCCCCCCCCCCCCC(=O)N[C@H](C(=O)N[C@@H](CCCNC(=N)N)C(=O)N1CCC[C@H]1C(=O)N[C@H](C(=O)N[C@@H](C)C(=O)N[C@@H](CC(N)=O)C(=O)N[C@@H](C)C(=O)N[C@@H](CCCNC(=N)N)C(=O)N[C@@H](CC(C)C)C(N)=O)C(C)C)C(C)C [Compound 81] (Palmitoyl-VRPVANARL-NH2) | > 10000 nM
13 | CCCCCCCCCCCCCCCC(=O)N[C@@H](Cc1ccccc1)C(=O)N[C@@H](CCCNC(=N)N)C(=O)N[C@@H](CO)C(=O)N[C@@H](CO)C(=O)N[C@@H](CCCNC(=N)N)C(=O)N[C@@H](CCC(=O)O)C(=O)N[C@@H](CCCCN)C(=O)N[C@@H](CCCNC(=N)N)C(=O)N[C@@H](CCCNC(=N)N)C(=O)N[C@@H](CO)C(=O)N[C@@H](C)C(=O)N[C@@H](CC(=O)O)C(=O)N[C@H](C(=O)N[C@@H](Cc1ccccc1)C(=O)N[C@H](C(N)=O)[C@@H](C)CC)[C@@H](C)CC [Compound 11] (Palmitoyl-FRSSREKRRSADIFI-NH2) | 1 to 500 nM
14 | CCCCCCCCCCCCCCCC(=O)N[C@H](C(=O)N[C@@H](CCCNC(=N)N)C(=O)N1CCC[C@H]1C(=O)N[C@H](C(=O)N[C@@H](C)C(=O)N[C@@H](CC(N)=O)C(=O)N[C@@H](C)C(=O)N[C@@H](CCCNC(=N)N)C(=O)N[C@@H](CC(C)C)C(=O)N[C@@H](CCCNC(=N)N)C(=O)N[C@@H](CC(C)C)C(=O)N[C@@H](CCCNC(=N)N)C(=O)N[C@H](C(=O)N[C@@H](CO)C(N)=O)C(C)C)C(C)C)C(C)C [Compound 86] (Palmitoyl-VRPVANARLRLRVS-NH2) | > 10000 nM
15 | CCCCCCCCCCCCCCCC(=O)N[C@@H](CO)C(=O)N[C@@H](CO)C(=O)N[C@@H](CCCNC(=N)N)C(=O)N[C@@H](CCC(=O)O)C(=O)N[C@@H](CCCCN)C(=O)N[C@@H](CCCNC(=N)N)C(=O)N[C@@H](CCCNC(=N)N)C(=O)N[C@@H](CO)C(=O)N[C@@H](C)C(=O)N[C@@H](CC(=O)O)C(=O)N[C@H](C(=O)N[C@@H](Cc1ccccc1)C(=O)N[C@H](C(=O)N[C@@H](C)C(N)=O)[C@@H](C)CC)[C@@H](C)CC [Compound 33] (Palmitoyl-SSREKRRSADIFIA-NH2) | > 10000 nM
16 | CCCCCCCCCCCCCCCC(=O)N[C@H](C(=O)N[C@H](C(=O)N[C@@H](Cc1ccccc1)C(=O)N[C@@H](CCCNC(=N)N)C(=O)N[C@@H](CO)C(=O)N[C@@H](C)C(=O)N[C@@H](CCCNC(=N)N)C(=O)N[C@@H](CCC(=O)O)C(=O)N[C@@H](CCCCN)C(=O)N[C@@H](CCCNC(=N)N)C(=O)N[C@@H](CCCNC(=N)N)C(=O)N[C@@H](CO)C(=O)N[C@@H](C)C(=O)N[C@@H](CC(=O)O)C(=O)N[C@H](C(=O)N[C@@H](Cc1ccccc1)C(=O)N[C@H](C(N)=O)[C@@H](C)CC)[C@@H](C)CC)C(C)C)[C@@H](C)O [Compound 28] (Palmitoyl-TVFRSAREKRRSADIFI-NH2) | 1 to 500 nM
